One data set concerns HCV replicon. In words: HCV replicon assay (FRET / luciferase reporter). Format: cell-based, HCV (HUH-7 cells). The conditions noted are these: Hepatitis C virus; HCV replicon cells. The source says: FRET Assay Preparation. To perform the HCV FRET screening assay, 96-well cell culture plates were used. The FRET peptide (Anaspec, Inc.) (Taliani et al., Anal. Biochem. 1996, 240, 60-67) contains a fluorescence donor, EDANS, near one end of the peptide and an acceptor, DABCYL, near the other end. The fluorescence of the peptide is quenched by […] resonance energy transfer (RET) between the donor and the acceptor, but as the NS3 protease cleaves the peptide the products are released from RET quenching and the fluorescence of the donor becomes apparent. The assay reagent was made as follows: 5× cell Luciferase cell culture lysis reagent from Promega (#E153A) diluted to 1× with dH2O, NaCl added to 150 mM final, the FRET peptide diluted to 20 μM final from a 2 mM stock.
To prepare plates, HCV replicon cells, with or without a Renilla luciferase reporter gene, were trypsinized and placed into each well of a 96-well plate with titrated test compounds added in columns 3 through 12; columns 1 and 2 contained a control compound (HCV protease inhibitor), and the bottom row contained cells without compound. The plates were then placed in a CO2 incubator at 37° C.
Assays. Subsequent to addition of the test compounds described above (FRET Assay Preparation), at various times the plate was removed and Alamar blue solution (Trek Diagnostics, #00-100) was added per well as a measure of cellular toxicity. After reading in a Cytoflour 4000 instrument (PE Biosystems), plates were rinsed with PBS and then used for FRET assay by the addition of 30 ul of the FRET peptide assay reagent described above (FRET Assay Preparation) per well. The plate was then placed into the Cytoflour 4000 instrument which had been set to 340 excite/490 emission, automatic mode for 20 cycles and the plate read in a kinetic mode. Typically, the signal to noise using an endpoint analysis after the reads was at least three-fold. Alternatively, after Alamar blue reading, plates were rinsed with PBS, 50 ul of DMEM (high glucose) without phenol red was added and plates were then used for luciferase assay using the Promega Dual-Glo Luciferase Assay System.
Compound analysis was determined by quantification of the relative HCV replicon inhibition and the relative cytotoxicity values. To calculate cytoxicity values, the average Alamar Blue fluorescence signals from the control wells were set as 100% non-toxic. The individual signals in each of the compound test wells were then divided by the average control signal and multiplied by 100% to determine […]. To calculate the HCV replicon inhibition values, an average background value was obtained from the two wells containing the highest amount of HCV protease inhibitor at the end of the assay period. These numbers were similar to those obtained from naïve Huh-7 cells.
The background numbers were then subtracted from the average signal obtained from the control wells and this number was used as 100% activity. The individual signals in each of the compound test wells were then divided by the averaged control values after background subtraction and multiplied by 100% to determine percent activity. EC50 values for a protease inhibitor titration were calculated as the concentration which caused a 50% reduction in FRET or luciferase activity. The two numbers generated for the compound plate, percent cytoxicity and percent activity were used to determine compounds of interest for further analysis.
The HCV replicon luciferase assay was developed to monitor the inhibitory effects of compounds described in the disclosure on HCV viral replication. Utilization of a replicon luciferase reporter assay was first described by Krieger et al (Krieger N, Lohmann V, and Bartenschlager R, J. Virol. 75(10):4614-4624 (2001)). HUH-7 cells, constitutively expressing the HCV replicon, were grown in Dulbecco's Modified Eagle Media (DMEM) (Gibco-BRL) containing 10% Fetal calf serum (FCS) (Sigma) and 1 mg/ml G418 (Gibco-BRL). […]
A general note: Replicon systems follow genome replication, usually without infectious particles.

For a further data set, the target named is T1, HCV NS5B (Hepatitis C virus genotype 1b, UniProt Q9WMX2).
T1 construct: The protein was expressed with an 18 amino acid C-terminal truncation to enhance the solubility; made in house; host or cells: E. coli BL21(DE3)
T1 sequence (Q9WMX2 2420-2992): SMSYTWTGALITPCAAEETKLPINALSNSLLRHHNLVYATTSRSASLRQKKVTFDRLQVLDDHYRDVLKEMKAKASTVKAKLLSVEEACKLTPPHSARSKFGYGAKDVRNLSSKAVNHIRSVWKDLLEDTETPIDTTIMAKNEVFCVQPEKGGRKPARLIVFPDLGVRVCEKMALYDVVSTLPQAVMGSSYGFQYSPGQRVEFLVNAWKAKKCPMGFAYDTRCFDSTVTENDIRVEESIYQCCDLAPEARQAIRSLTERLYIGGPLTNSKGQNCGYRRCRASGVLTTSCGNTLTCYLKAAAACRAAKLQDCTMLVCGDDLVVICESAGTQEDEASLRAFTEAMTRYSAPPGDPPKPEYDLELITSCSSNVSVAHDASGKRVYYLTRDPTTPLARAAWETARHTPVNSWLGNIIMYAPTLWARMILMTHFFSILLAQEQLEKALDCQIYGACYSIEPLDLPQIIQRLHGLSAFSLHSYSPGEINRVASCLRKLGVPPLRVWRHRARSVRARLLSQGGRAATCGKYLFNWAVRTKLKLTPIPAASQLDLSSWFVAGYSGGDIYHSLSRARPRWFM
In words: HCV NS5B RdRp enzyme assay. It counts as biochemical. The conditions noted are these: HCV NS5B RdRp genotype 1b; standard or modified assay not specified. As to the method:
HCV NS5B RdRp cloning, expression, and purification. The cDNA encoding the NS5B protein of HCV, genotype 1b, was cloned into the pET21a expression vector. The protein was expressed with an 18 amino acid C-terminal truncation to enhance the solubility. The E. coli competent cell line BL21(DE3) was used for expression of the protein. Cultures were grown at 37° C. for ˜4 hours until the cultures reached an optical density of 2.0 at 600 nm. The cultures were cooled to 20° C. and induced with 1 mM IPTG. Fresh ampicillin was added to a final concentration of 50 μg/ml and the cells were grown overnight at 20° C.
Cell pellets (3 L) were lysed for purification to yield 15-24 mgs of purified NS5B. The lysis buffer consisted of 20 mM Tris-HCl, pH 7.4, 500 mM NaCl, 0.5% triton X-100, 1 mM DTT, 1 mM EDTA, 20% glycerol, 0.5 mg/ml lysozyme, 10 mM MgCl2, 15 ug/ml deoxyribonuclease I, and Complete TM protease inhibitor tablets (Roche). After addition of the lysis buffer, frozen cell pellets were resuspended using a tissue homogenizer. To reduce the viscosity of the sample, aliquots of the lysate were sonicated on ice using a microtip attached to a Branson sonicator. The sonicated lysate was centrifuged at 100,000×g for 1 hr at 4° C. and filtered through a 0.2 μm filter unit (Corning).
The protein was purified using three sequential chromatography steps: Heparin sepharose CL-6B, polyU sepharose 4B, and Hitrap SP sepharose (Pharmacia). The chromatography buffers were identical to the lysis buffer but contained no lysozyme, deoxyribonuclease I, MgCl2 or protease inhibitor and the NaCl concentration of the buffer was adjusted according to the requirements for charging the protein onto the column. Each column was eluted with a NaCl gradient which varied in length from 5-50 column volumes depending on the column type. After the final chromatography step, the resulting purity of the enzyme is >90% based on SDS-PAGE analysis. The enzyme was aliquoted and stored at −80° C.
Standard HCV NS5B RdRp enzyme assay. HCV RdRp genotype 1b assays were run in a final volume of 60 μl in 96 well plates (Costar 3912). The assay buffer is composed of 20 mM Hepes, pH 7.5, 2.5 mM KCl, 2.5 mM MgCl2, 1 mM DTT, 1.6 U RNAse inhibitor (Promega N2515), 0.1 mg/ml BSA (Promega R3961), and 2% glycerol. All compounds were serially diluted (3-fold) in DMSO and diluted further in water such that the final concentration of DMSO in the assay was 2%. HCV RdRp genotype 1b enzyme was used at a final concentration of 28 nM. A polyA template was used at 6 nM, and a biotinylated oligo-dT12 primer was used at 180 nM final concentration. Template was obtained commercially (Amersham 27-4110). Biotinylated primer was prepared by Sigma Genosys. 3H-UTP was used at 0.6 μCi (0.29 μM total UTP). Reactions were initiated by the addition of enzyme, incubated at 30° C. for 60 min, and stopped by adding 25 μl of 50 mM EDTA containing SPA beads (4 μg/μl, Amersham RPNQ 0007). Plates were read on a Packard Top Count NXT after >1 hr incubation at room temperature.
Modified HCV NS5B RdRp enzyme assay. A modified enzyme assay was performed essentially as described for the standard enzyme assay except for the following: The biotinylated oligo dT12 primer was precaptured on streptavidin-coated SPA beads by mixing primer and beads in assay buffer and incubating at room temperature for one hour. Unbound primer was removed after centrifugation. The primer-bound beads were resuspended in 20 mM Hepes buffer, pH 7.5 and used in the assay at final concentrations of 20 nM primer and 0.67 μg/μl beads. Order of addition in the assay: enzyme (14 nM) was added to diluted compound followed by the addition of a mixture of template (0.2 nM), 3H-UTP (0.6 μCi, 0.29 μM), and primer-bound beads, to initiate the reaction; concentrations given are final. Reactions were allowed to proceed for 4 hours at 30° C.
IC50 values for compounds were determined using seven different [I]. […]

Another data set deals with HCV. The conditions noted are these: cited from earlier work.

For the molecule `CNC(=O)c1c(-c2ccc(F)cc2)oc2ccc(-c3cc(C(=O)NC4(c5ccc6ncccc6n5)CC4)cc(F)c3C)c(F)c12` [5-(5-(1-(1,5-naphthyridin-2-yl)cyclopropylcarbamoyl)-3-fluoro-2-methylphenyl)-4-fluoro-2-(4-fluorophenyl)-N-methylbenzofuran-3-carboxamide], the EC50 (commonly the concentration at which the effect is half-maximal) with HCV replicon worked out at 100 nM. For the same molecule, at HCV NS5B, half-maximal inhibition (IC50) required 70 nM. The corresponding values for `CNC(=O)c1c(-c2ccc(F)cc2)oc2ccc(-c3cc(C(=O)NC4(c5ccc6cnccc6n5)CC4)c(OC)cc3C)c(F)c12` [5-(5-(1-(1,6-naphthyridin-2-yl)cyclopropylcarbamoyl)-4-methoxy-2-methylphenyl)-4-fluoro-2-(4-fluorophenyl)-N-methylbenzofuran-3-carboxamide] are 9 nM and 100 nM. In turn, `CNC(=O)c1c(-c2ccc(F)cc2)oc2ccc(-c3cc(C(=O)NC4(c5ccc6ccncc6n5)CC4)c(OC)cc3C)c(F)c12` [5-(5-(1-(1,7-naphthyridin-2-yl)cyclopropylcarbamoyl)-4-methoxy-2-methylphenyl)-4-fluoro-2-(4-fluorophenyl)-N-methylbenzofuran-3-carboxamide] yielded an EC50 in the data set with HCV replicon of 6 nM. Besides, half-maximal inhibition at HCV NS5B (IC50) required 30 nM. In turn, `CNC(=O)c1c(-c2ccc(F)cc2)oc2ccc(-c3cc(C(=O)N[C@H](C)c4nc5cnccc5o4)cc(F)c3C)c(F)c12` [5-(5-(1-(1H-imidazo[4,5-o]pyridin-2-yl)cyclopropylcarbamoyl)-2-methylphenyl)-4-fluoro-2-(4-fluorophenyl)-N-methylbenzofuran-3-carboxamide] displayed an EC50 with HCV replicon of 40 nM. Further, the IC50 – broadly, the midpoint of a concentration-inhibition curve – on HCV NS5B came to 30 nM.

As for `CNC(=O)c1c(-c2ccc(F)cc2)oc2cc(N(CCO)S(C)(=O)=O)c(C3CC3)cc12` [HCV-796], the hepatic toxicity entry in the data set on HCV (extended dosing of the combination regimens) was “hepatic toxicity observed”. In addition, in the data set with HCV (patients, single agent: transient decrease then rebound, more robust drop with interferon and ribavirin), the “HCV RNA levels in patients” value is given as “ability to reduce HCV RNA levels in patients”. In the case of alpha-interferon and ribavirin, in the data set with HCV (combination therapy (Poynard et al. 1998)), the sustained efficacy was 40 % of patients.

Values taken from US8354410B2 (Bristol-Meyers Squibb Company, priority 2010, dated 2013).
